# Experimental data: patent publication US20220119446A1, “BIOMARKERS AND TREATMENT OF NEURONAL INJURY AND NEURODEGENERATION” (Board of Supervisons of Louisiana State University and …, priority 2018, published 2022)
# “Also recorded” adds a separate entry of the source.
# What was measured:
# Wnt5a = experiment: Microarray of Wnt5a expression in 15-LOX-1 deficient ARPE-19 cells under uncompensated oxidative stress (UOS); format: cell-based, human; conditions: UOS=600 μM H2O2 plus 10 ng/ml TNFα, 6 hours, UOS alone gives 2-fold increase
# Protocol: Primary human RPE cultures can be from human eyecups, provided by the National Disease Research Interchange (NDRI), as described previously (Calandria et al. 2012). hRPE cells can be grown and maintained in high-glucose MEM (Life Technologies Corporation, Carlsbad, Calif.) supplemented with 10% FBS (Tissue Culture Biologicals, Inc., Long Beach, Calif.), 5% NCS, non-essential amino acids, Penicillin-Streptomycin (100 U/mL), human fibroblast growth factor (FGF) 10 ng/mL and incubated at 37° C. with a constant supply of 5% CO2. ARPE-19 cells, can be plated and grown in DMEM/F-12 containing 10% FBS and 1× penicillin/streptomycin at 37° C., 5% CO2, 99% relative humidity for 24 h. Silenced 15-LOX-1 cells, described in detail elsewhere (Calandria et al. 2009), are derived from ARPE-19 by stably silencing 15-LOX-1. 15-LOX-1 deficient cells can be maintained in the same medium as ARPE-19 with the addition of 500 μg/mL Geneticin (Life Technologies Corporation, Carlsbad, Calif.). […] Transfection efficiency can be assessed using an expression plasmid-carrying GFP ORF or by including a negative control siRNA conjugated with Alexa Fluor® 488 or 546 (QIAGEN, Hilden, Germany). siRNA efficiency can be assessed using SYBR green-based real-time PCR using the primers of Table 2 and the percentage of silencing achieved (FIG. 7). […]
# Wnt5a promoter A = experiment: ChIP assay of cRel binding to Wnt5a promoter A with real-time PCR; format: cell-based, human; conditions: for cRel bound to genomic DNA, amplicon 3: RPE cells undergoing UOS, NPD1 added
# Source text: Based on the regions found to bind NF-κB members (Table 4), we designed four sets of primers that bound in the proximity or within the regions of interest to perform SYBR green-based real-time PCR detection (FIG. 2, D-F and Table 3). FIGS. 2, D and F and Table 5, also show regions of high probability for methylation, a mechanism for blocking Wnt5a transcription (Vaidya et al. 2016). Micrococcal […] digested genomic DNA fragments from UOS or UOS-plus-NPD1-treated RPE cells, +/−rWnt5a, were pulled down by an antibody against cRel and used to test the four sets of primers. […] Methylation of Region 1 may occur since it was predicted by the Methprimer software (Table 5). […] The results obtained for amplicon 3, indicate competition between the Wnt5a-activated p65 and NPD1-activated cRel (FIG. 2E).
# The chromatin immunoprecipitation assay can be performed using SimpleChIP® Plus Enzymatic Chromatin IP Kit (Cell Signaling Technology, Boston, Mass.) following the manufacturer's recommendations including ChIP validated cRel antibody. Positive control Histone H3 antibody and normal serum can be provided by a kit, as well as control primers for human RPL30 Exon 3. Primers A1 to 4 can be designed using Primer-Blast (NCBI, Bethesda, Md.)((Ye et al. 2012) and are depicted in Table 5. The immunoprecipitated samples real-time PCR values can be standardized using 10% of the input chromatin preparation using primers A1, A2, and A3 pooled values and RPL30 Exon 3 values.
# The chromatin immunoprecipitation assay was performed using SimpleChIP® Plus Enzymatic Chromatin IP Kit (Cell Signaling Technology, Boston, Mass., USA) following the manufacturer's recommendations including ChIP validated cREL antibody. Positive control Histone H3 antibody and normal serum was provided by the kit, as well as control primers for human RPL30 Exon 3. Primers A1 to 4 were designed using Primer-Blast at NCBI platform (Ye et al., 2012) and are depicted in Table S5. The immunoprecipitated samples real-time PCR values were standardized using 10% of the input chromatin preparation using primers A1, A2, and A3 pooled values and RPL30 Exon 3 values.
structure (smiles),measurement,setting,value
"CC/C=C\C[C@H](O)\C=C/C=C/C=C/[C@H](O)C/C=C\C/C=C\CCC(=O)O [NPD1, 10R,17S-dihydroxy-docosa-4Z,7Z,11E,13E,15Z,19Z-hexaenoic acid]",Wnt5a expression,Wnt5a,brought down to below controls; also recorded: reversed
same,"cRel bound to genomic DNA, amplicon 2 (Region 3 and 4)","Wnt5a promoter A; RPE cells under UOS, NPD1 100 nM",twice the amount of cRel bound
same,"cRel binding, amplicon 4",Wnt5a promoter A; RPE cells undergoing UOS in the presence of rWnt5a,restored the cRel binding to control levels
same,"cRel bound to genomic DNA, amplicon 3",Wnt5a promoter A; Wnt5a present,10 fold
same,"cRel bound to genomic DNA, amplicon 3",Wnt5a promoter A; absence of Wnt5a,more than 20 fold
same,"cRel binding to genomic DNA, amplicon A1","Wnt5a promoter A; RPE cells, UOS or UOS plus NPD1, +/−rWnt5a",no differences between treatments
